Measured values: patent US11427549B2, “Pyrimidinyloxy benzo-fused compounds as herbicides” (FMC Corporation, priority 2017, dated 2022)

Legend:
[1] = tested on: barnyardgrass (Echinochloa crus-galli); assay: Test A preemergence, barnyardgrass; format: in vivo; details: Echinochloa crus-galli, pre-emergence, 240 h, 0 to 100 scale (0 no effect, 100 complete control), read-out: Plant response rating, Barnyardgrass; for pest or weed control at 31 g/ha: 31 g ai/ha; for pest or weed control at 125 g/ha: 125 g ai/ha
kochia (Kochia scoparia) [2] = assay: Test A preemergence, kochia; format: in vivo; details: Bassia scoparia, pre-emergence, 240 h, 0 to 100 scale (0 no effect, 100 complete control), read-out: Plant response rating, Kochia; for pest or weed control at 31 g/ha: 31 g ai/ha; for pest or weed control at 125 g/ha: 125 g ai/ha
[3] = tested on: ragweed (common ragweed, Ambrosia elatior); assay: Test A preemergence, ragweed; format: in vivo; details: Ambrosia artemisiifolia, pre-emergence, 240 h, 0 to 100 scale (0 no effect, 100 complete control), read-out: Plant response rating, Ragweed; for pest or weed control at 31 g/ha: 31 g ai/ha; for pest or weed control at 125 g/ha: 125 g ai/ha
[4] = tested on: ryegrass, Italian (Italian ryegrass, Lolium multiflorum); assay: Test A preemergence, ryegrass, Italian; format: in vivo; details: Lolium multiflorum, pre-emergence, 240 h, 0 to 100 scale (0 no effect, 100 complete control), read-out: Plant response rating, Ryegrass, Italian; for pest or weed control at 31 g/ha: 31 g ai/ha; for pest or weed control at 125 g/ha: 125 g ai/ha
[5] = tested on: pigweed (Amaranthus retroflexus); assay: Test A preemergence, pigweed; format: in vivo; details: Amaranthus retroflexus, pre-emergence, 240 h, 0 to 100 scale (0 no effect, 100 complete control), read-out: Plant response rating, Pigweed; for pest or weed control at 31 g/ha: 31 g ai/ha; for pest or weed control at 125 g/ha: 125 g ai/ha
[6] = tested on: barnyardgrass (Echinochloa crus-galli); assay: Test A postemergence, barnyardgrass; format: in vivo; details: Echinochloa crus-galli, post-emergence, 240 h, 0 to 100 scale (0 no effect, 100 complete control), read-out: Plant response rating, Barnyardgrass; for pest or weed control at 31 g/ha: 31 g ai/ha; for pest or weed control at 125 g/ha: 125 g ai/ha
kochia (Kochia scoparia) [7] = assay: Test A postemergence, kochia; format: in vivo; details: Bassia scoparia, post-emergence, 240 h, 0 to 100 scale (0 no effect, 100 complete control), read-out: Plant response rating, Kochia; for pest or weed control at 31 g/ha: 31 g ai/ha; for pest or weed control at 125 g/ha: 125 g ai/ha
[8] = tested on: ragweed (common ragweed, Ambrosia elatior); assay: Test A postemergence, ragweed; format: in vivo; details: Ambrosia artemisiifolia, post-emergence, 240 h, 0 to 100 scale (0 no effect, 100 complete control), read-out: Plant response rating, Ragweed; for pest or weed control at 31 g/ha: 31 g ai/ha; for pest or weed control at 125 g/ha: 125 g ai/ha
[9] = tested on: ryegrass, Italian (Italian ryegrass, Lolium multiflorum); assay: Test A postemergence, ryegrass, Italian; format: in vivo; details: Lolium multiflorum, post-emergence, 240 h, 0 to 100 scale (0 no effect, 100 complete control), read-out: Plant response rating, Ryegrass, Italian; for pest or weed control at 31 g/ha: 31 g ai/ha; for pest or weed control at 125 g/ha: 125 g ai/ha
[10] = tested on: foxtail, green (green foxtail, Setaria viridis); assay: Test A postemergence, foxtail, green; format: in vivo; details: Setaria, post-emergence, 240 h, 0 to 100 scale (0 no effect, 100 complete control), read-out: Plant response rating, Foxtail, Green; for pest or weed control at 31 g/ha: 31 g ai/ha; for pest or weed control at 125 g/ha: 125 g ai/ha
[11] = tested on: pigweed (Amaranthus retroflexus); assay: Test A postemergence, pigweed; format: in vivo; details: Amaranthus retroflexus, post-emergence, 240 h, 0 to 100 scale (0 no effect, 100 complete control), read-out: Plant response rating, Pigweed; for pest or weed control at 31 g/ha: 31 g ai/ha; for pest or weed control at 125 g/ha: 125 g ai/ha
[12] = tested on: wheat (Triticum aestivum); assay: Test A postemergence, wheat; format: in vivo; details: Triticum aestivum, post-emergence, 240 h, 0 to 100 scale (0 no effect, 100 complete control), read-out: Plant response rating, Wheat; for plant injury at 31 g/ha: 31 g ai/ha; for plant injury at 125 g/ha: 125 g ai/ha
corn (Zea mays) = assay: Test A postemergence, corn; format: in vivo; details: Zea mays, post-emergence, 240 h, 0 to 100 scale (0 no effect, 100 complete control); for Corn plant response rating (crop injury, 0 = no effect, 100 = complete kill) at 31 g/ha: 31 g ai/ha; for Corn plant response rating (crop injury, 0 = no effect, 100 = complete kill) at 125 g/ha: 125 g ai/ha
[13] = tested on: blackgrass (Alopecurus myosuroides); assay: Test A postemergence, blackgrass; format: in vivo; details: Alopecurus myosuroides, post-emergence, 240 h, 0 to 100 scale (0 no effect, 100 complete control), read-out: Plant response rating, Blackgrass; for pest or weed control at 31 g/ha: 31 g ai/ha; for pest or weed control at 125 g/ha: 125 g ai/ha
[14] = tested on: galium (catchweed bedstraw, Galium aparine); assay: Test A postemergence, galium; format: in vivo; details: Galium, post-emergence, 240 h, 0 to 100 scale (0 no effect, 100 complete control), read-out: Plant response rating, Galium; for pest or weed control at 31 g/ha: 31 g ai/ha; for pest or weed control at 125 g/ha: 125 g ai/ha
rice (Oryza sativa) = assay: Test B flooded paddy test, rice; details: Oryza sativa, read-out: Plant response rating, Rice (0 to 100 scale, 0 is no effect, 100 is complete control)
[15] = tested on: ducksalad (Heteranthera limosa); assay: Test B flooded paddy test, ducksalad; details: Heteranthera limosa, read-out: Plant response rating, Ducksalad (0 to 100 scale, 0 is no effect, 100 is complete control)
[16] = tested on: barnyardgrass (Echinochloa crus-galli); assay: Test B flooded paddy test, barnyardgrass; details: Echinochloa crus-galli, read-out: Plant response rating, Barnyardgrass (0 to 100 scale, 0 is no effect, 100 is complete control)

Compound `OC1CC(CCCC(F)(F)F)c2c(Oc3ncc(Cl)cn3)cccc21` (stereo not drawn) [Compound 10, 4-[(5-Chloro-2-pyrimidinyl)oxy]-2,3-dihydro-3-(4,4,4-trifluorobutyl)-1H-inden-1-ol] has a pest or weed control at 31 g/ha [1] of 10%, a pest or weed control at 125 g/ha [1] of 70% and a pest or weed control at 31 g/ha (kochia (Kochia scoparia) [2]) of 0%. It also gave a pest or weed control at 125 g/ha (kochia (Kochia scoparia) [2]) of 30%, a pest or weed control at 31 g/ha [3] of 0% and a pest or weed control at 125 g/ha [3] of 0%. The pest or weed control at 31 g/ha [4] was 10%, the pest or weed control at 125 g/ha [4] was 30% and the pest or weed control at 31 g/ha [5] was 100%. For the same compound, the pest or weed control at 125 g/ha [5] was 100%, the pest or weed control at 31 g/ha [6] was 10% and the pest or weed control at 125 g/ha [6] was 40%. The pest or weed control at 31 g/ha (kochia (Kochia scoparia) [7]) was 10%, the pest or weed control at 125 g/ha (kochia (Kochia scoparia) [7]) was 60% and the pest or weed control at 31 g/ha [8] was 0%. It also gave a pest or weed control at 125 g/ha [8] of 10%, a pest or weed control at 31 g/ha [9] of 0% and a pest or weed control at 125 g/ha [9] of 30%. The pest or weed control at 31 g/ha [10] was 10%, the pest or weed control at 125 g/ha [10] was 50% and the pest or weed control at 31 g/ha [11] was 50%. For the same compound, the pest or weed control at 125 g/ha [11] was 90%, the plant injury at 31 g/ha [12] was 0% and the plant injury at 125 g/ha [12] was 10%. For the same compound, the Corn plant response rating (crop injury, 0 = no effect, 100 = complete kill) at 31 g/ha (corn (Zea mays)) was 10%, the Corn plant response rating (crop injury, 0 = no effect, 100 = complete kill) at 125 g/ha (corn (Zea mays)) was 30% and the pest or weed control at 31 g/ha [13] was 10%. The pest or weed control at 125 g/ha [13] was 20%, the pest or weed control at 31 g/ha [14] was 10% and the pest or weed control at 125 g/ha [14] was 20%. The plant injury at 250 g/ha (rice (Oryza sativa)) was 25%, the pest or weed control at 250 g/ha [15] was 95% and the pest or weed control at 250 g/ha [16] was 45%.
In the case of `O=C1OC(CCC(F)(F)F)c2c(Oc3ncc(Cl)cn3)cccc21` (stereo not drawn) [Compound 4, 4-[(5-Chloro-2-pyrimidinyl)oxy]-3-(3,3,3-trifluoropropyl)-1(3H)-isobenzofuranone], the pest or weed control at 31 g/ha [1] was 70%, the pest or weed control at 125 g/ha [1] was 100% and the pest or weed control at 31 g/ha (kochia (Kochia scoparia) [2]) was 90%. For the same compound, the pest or weed control at 125 g/ha (kochia (Kochia scoparia) [2]) was 100%, the pest or weed control at 31 g/ha [3] was 20% and the pest or weed control at 125 g/ha [3] was 70%. For the same compound, the pest or weed control at 31 g/ha [4] was 20%, the pest or weed control at 125 g/ha [4] was 100% and the pest or weed control at 31 g/ha [5] was 100%. The pest or weed control at 125 g/ha [5] was 100%, the pest or weed control at 31 g/ha [6] was 30% and the pest or weed control at 125 g/ha [6] was 90%. For the same compound, the pest or weed control at 31 g/ha (kochia (Kochia scoparia) [7]) was 90%, the pest or weed control at 125 g/ha (kochia (Kochia scoparia) [7]) was 100% and the pest or weed control at 31 g/ha [8] was 0%. It also gave a pest or weed control at 125 g/ha [8] of 80%, a pest or weed control at 31 g/ha [9] of 20% and a pest or weed control at 125 g/ha [9] of 90%. The pest or weed control at 31 g/ha [10] was 30%, the pest or weed control at 125 g/ha [10] was 90% and the pest or weed control at 31 g/ha [11] was 90%. It also gave a pest or weed control at 125 g/ha [11] of 100%, a plant injury at 31 g/ha [12] of 20% and a plant injury at 125 g/ha [12] of 80%. It also gave a Corn plant response rating (crop injury, 0 = no effect, 100 = complete kill) at 31 g/ha (corn (Zea mays)) of 30%, a Corn plant response rating (crop injury, 0 = no effect, 100 = complete kill) at 125 g/ha (corn (Zea mays)) of 80% and a pest or weed control at 31 g/ha [13] of 40%. It also gave a pest or weed control at 125 g/ha [13] of 90%, a pest or weed control at 31 g/ha [14] of 100% and a pest or weed control at 125 g/ha [14] of 100%. It also gave a plant injury at 250 g/ha (rice (Oryza sativa)) of 45%, a pest or weed control at 250 g/ha [15] of 100% and a pest or weed control at 250 g/ha [16] of 35%.
`O=C1COC(CCCC(F)(F)F)c2c(Oc3ncc(Cl)cn3)cccc21` (stereo not drawn) [Compound 5, 8-[(5-Chloro-2-pyrimidinyl)oxy]-1-(4,4,4-trifluorobutyl)-1H-2-benzopyran-4(3H)-one] was tested, and the pest or weed control at 31 g/ha [1] was 0%, the pest or weed control at 125 g/ha [1] was 0% and the pest or weed control at 31 g/ha (kochia (Kochia scoparia) [2]) was 0%. It also gave a pest or weed control at 125 g/ha (kochia (Kochia scoparia) [2]) of 0%, a pest or weed control at 31 g/ha [3] of 0% and a pest or weed control at 125 g/ha [3] of 0%. It also gave a pest or weed control at 31 g/ha [4] of 0%, a pest or weed control at 125 g/ha [4] of 0% and a pest or weed control at 31 g/ha [5] of 0%. The pest or weed control at 125 g/ha [5] was 90%, the pest or weed control at 31 g/ha [6] was 0% and the pest or weed control at 125 g/ha [6] was 10%. It also gave a pest or weed control at 31 g/ha (kochia (Kochia scoparia) [7]) of 0%, a pest or weed control at 125 g/ha (kochia (Kochia scoparia) [7]) of 10% and a pest or weed control at 31 g/ha [8] of 0%. It also gave a pest or weed control at 125 g/ha [8] of 0%, a pest or weed control at 31 g/ha [9] of 0% and a pest or weed control at 125 g/ha [9] of 10%. The pest or weed control at 31 g/ha [10] was 10%, the pest or weed control at 125 g/ha [10] was 10% and the pest or weed control at 31 g/ha [11] was 10%. It also gave a pest or weed control at 125 g/ha [11] of 90%, a plant injury at 31 g/ha [12] of 0% and a plant injury at 125 g/ha [12] of 0%. The Corn plant response rating (crop injury, 0 = no effect, 100 = complete kill) at 31 g/ha (corn (Zea mays)) was 0%, the Corn plant response rating (crop injury, 0 = no effect, 100 = complete kill) at 125 g/ha (corn (Zea mays)) was 10% and the pest or weed control at 31 g/ha [13] was 10%. The pest or weed control at 125 g/ha [13] was 10%, the pest or weed control at 31 g/ha [14] was 0% and the pest or weed control at 125 g/ha [14] was 30%. It also gave a plant injury at 250 g/ha (rice (Oryza sativa)) of 40%, a pest or weed control at 250 g/ha [15] of 60% and a pest or weed control at 250 g/ha [16] of 0%.
